# Assay results as given in patent EP4692091A1, “CA[…], AND PHARMACEUTICAL COMPOSITION, PREPARATION METHOD THEREFOR AND USE THEREOF” (Changchun Genescience Pharmaceutical Co., Ltd., priority 2023, dated 2024).
# Where two headings read alike, the source gives them in different places.
# Columns and labels:
# [1] = Pharmacokinetic test in SD rats; type: in vivo; conditions: rat, 2 mg/kg, male SD rats, single intravenous injection, 2 mpk, plasma
# Protocol: After a single intravenous injection (dose: 2 mpk) of the compounds 6-2, 11-2, 17-2, and Dxd into male SD rats (blood collection time points: 0.083 h, 0.25 h, 0.5 h, 1 h, 2 h, 4 h, 8 h, and 24 h after IV administration, totaling 8 blood collection time points), average pharmacokinetic parameters in the plasma are as shown in Table 5: Table 5 Pharmacokinetic test result of representative compounds
# [2] = Stability of compounds in human plasma; type: in vitro ADME; conditions: 37°C, 5 µmol/L
# Protocol: • (1) 199 µL of human plasma was added to the culture plate of each cell. The culture plate was preheated to 37°C, and kept at this temperature for 15 min. • (2) After preincubation, 1 µL of 1 mmol/L each test compound and 1 µL of 1 mmol/L control compound were added to 199 µL of plasma, so that a final concentration of each test compound was 5 µmol/L and that of the control compound was 5 µmol/L. The final concentration of the organic solvent was 0.5%. The experiment would be duplicated twice. • (3) Reaction samples were incubated at 37°C. • (4) The reaction was stopped by adding 600 µL of cold methanol containing the internal standard at 0, 1, 2, 6, and 24 h. Each sample was vortex mixed for 10 min, and then centrifuged at 3,220 g for 30 min to precipitate the protein. […] Based on the signal response and peak shapes of liquid chromatography-mass spectrometry (LC-MS), the supernatant would be diluted with ultrapure water.
# All calculations were performed using Microsoft Excel. The peak area ratio was determined from the chromatogram of extracted ions. The percentage of compounds remaining at each time point was calculated as per the following formula: Residual percentagetmin (%) = peak area ratiotmin /peak areat0 × 100 [formula]
# NCI-N87 = test: Inhibition of proliferation of NCI-N87 cells by test compounds (CellTiter-Glo, 72 h); type: cell-based; conditions: Homo sapiens, NCI-N87, 72 h, NCI-N87, 72 h incubation
# Outline: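 NCI-N87 cells were treated after adhesion with compound (final DMSO 0.33%) for 72 h at 37°C. Viability was read as CellTiter-Glo luminescence, and IC50 came from a four-parameter nonlinear fit.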
# [3] = Stability of compounds in human plasma; type: in vitro ADME; conditions: 37°C, 5 µmol/L, read-out: Residual percentage (%)
# CYP1A2 = CYP1A2 (Homo sapiens, UniProt P05177); test: CYP inhibition in human hepatomicrosomes, CYP1A2
# Sequence of CYP1A2 (P05177 whole entry): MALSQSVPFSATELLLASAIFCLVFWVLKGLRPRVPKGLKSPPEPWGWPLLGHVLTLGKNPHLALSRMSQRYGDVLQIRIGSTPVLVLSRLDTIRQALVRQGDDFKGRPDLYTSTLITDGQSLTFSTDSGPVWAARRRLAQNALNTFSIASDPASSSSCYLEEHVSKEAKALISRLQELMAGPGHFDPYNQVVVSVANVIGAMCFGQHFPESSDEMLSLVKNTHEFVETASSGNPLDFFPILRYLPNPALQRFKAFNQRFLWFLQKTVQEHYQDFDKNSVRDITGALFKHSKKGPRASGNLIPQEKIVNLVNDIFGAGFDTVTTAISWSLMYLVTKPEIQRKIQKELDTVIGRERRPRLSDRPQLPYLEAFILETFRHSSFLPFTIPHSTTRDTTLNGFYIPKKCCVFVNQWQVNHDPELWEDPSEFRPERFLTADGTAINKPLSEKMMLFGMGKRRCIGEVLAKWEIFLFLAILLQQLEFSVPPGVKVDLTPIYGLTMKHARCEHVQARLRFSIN
# CYP2D6 = CYP2D6 (Homo sapiens, UniProt P10635); test: CYP inhibition in human hepatomicrosomes, CYP2D6
# Sequence of CYP2D6 (P10635 whole entry): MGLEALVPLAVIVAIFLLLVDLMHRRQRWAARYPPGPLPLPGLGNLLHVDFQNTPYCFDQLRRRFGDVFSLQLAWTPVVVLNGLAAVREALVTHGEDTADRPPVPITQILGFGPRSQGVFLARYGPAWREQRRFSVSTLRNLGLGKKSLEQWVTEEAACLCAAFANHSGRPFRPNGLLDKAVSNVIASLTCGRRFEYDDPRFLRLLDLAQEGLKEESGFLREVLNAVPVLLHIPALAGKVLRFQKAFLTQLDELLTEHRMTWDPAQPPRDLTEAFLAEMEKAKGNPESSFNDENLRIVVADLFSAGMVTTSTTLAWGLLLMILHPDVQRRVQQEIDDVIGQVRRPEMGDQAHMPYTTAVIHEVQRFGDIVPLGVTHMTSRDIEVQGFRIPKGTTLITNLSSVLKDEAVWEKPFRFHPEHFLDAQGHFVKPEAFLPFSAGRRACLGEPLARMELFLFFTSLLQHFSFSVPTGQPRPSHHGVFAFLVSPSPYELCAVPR
# MDA-MB-468 = test: Inhibition of proliferation of MDA-MB-468 cells by test compounds (CellTiter-Glo, 72 h); type: cell-based; conditions: Homo sapiens, MDA-MB-468, 72 h, MDA-MB-468, 72 h incubation
# Outline: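 Cells plated, allowed to adhere, then treated with compounds (final DMSO 0.33%) for 72 h at 37°C. Viability read by CellTiter-Glo luminescence after 30 min at room temperature; IC50 from four-parameter nonlinear fit.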
# SK-BR-3 = test: Inhibition of proliferation of SK-BR-3 cells by compounds (CellTiter-Glo, 72 h); type: cell-based; conditions: Homo sapiens, SK-BR-3, 72 h, SK-BR-3, 72 h incubation
# Outline: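 SK-BR-3 cells plated in 384-well format, allowed to adhere, then exposed to compound (0.33% DMSO final) for 72 h at 37 °C, 5% CO2. Viability read by CellTiter-Glo luminescence; IC50 from four-parameter nonlinear fit.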
# CYP3A4 = CYP3A4 (Homo sapiens, UniProt P08684); test: CYP inhibition in human hepatomicrosomes, CYP3A4
# Sequence of CYP3A4 (P08684 whole entry): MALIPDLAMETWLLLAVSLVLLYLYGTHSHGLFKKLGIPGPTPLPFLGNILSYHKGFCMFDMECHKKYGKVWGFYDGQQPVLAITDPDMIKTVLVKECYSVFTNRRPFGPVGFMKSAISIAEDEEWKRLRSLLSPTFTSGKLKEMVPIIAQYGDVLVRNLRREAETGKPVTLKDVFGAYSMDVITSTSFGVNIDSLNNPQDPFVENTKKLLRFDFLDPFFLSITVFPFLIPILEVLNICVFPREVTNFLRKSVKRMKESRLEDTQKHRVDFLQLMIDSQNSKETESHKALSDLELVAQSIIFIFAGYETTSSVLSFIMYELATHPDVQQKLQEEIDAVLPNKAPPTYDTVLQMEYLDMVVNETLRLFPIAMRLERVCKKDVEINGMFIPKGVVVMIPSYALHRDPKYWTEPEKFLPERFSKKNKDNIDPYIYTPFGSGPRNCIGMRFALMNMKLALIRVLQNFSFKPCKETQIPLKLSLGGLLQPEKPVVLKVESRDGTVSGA
compound,measurement,setting,value
CC[C@@]1(O)C(=O)OCc2c1cc1n(c2=O)Cc2c-1nc1cc(F)c(C)c3c1c2[C@@H](NC(=O)CO)CC3 [Dxd],AUC(0-inf),[1],302 ng·h/mL
same,AUC(0-t),[1],301 ng·h/mL
same,C0,[1],748 ng/mL
same,clearance,[1],113 mL/min/kg
same,half-life,[1],23.4 min
same,Vd,[1]; read-out: Vss,2.7 L/kg
same,Residual percentage (%),[2]; 0 h,100.00%
same,"remaining at 1 h, 5 µM","[2]; 1 h, read-out: Residual percentage (%)",89.4%
same,"remaining at 2 h, 5 µM","[2]; 2 h, read-out: Residual percentage (%)",86.8%
same,"remaining at 6 h, 5 µM","[2]; 6 h, read-out: Residual percentage (%)",86.4%
same,"remaining at 24 h, 5 µM","[2]; 24 h, read-out: Residual percentage (%)",82.3%
same,IC50,NCI-N87,11 nM
same,"remaining at 4 h, 5 µM",[3],83.6%
same,IC50,CYP1A2,> 30000 nM
same,IC50,CYP2D6,> 30000 nM
same,IC50,MDA-MB-468,4.6 nM
same,IC50,SK-BR-3,11 nM
same,IC50,CYP3A4,> 30 µM
same,IC50,"CYP3A4; read-out: 3A4M (IC50 µM), human hepatomicrosomes, substrate Midazolam",> 30 µM
